This is an account of results in PMC12040169 (PLOS Biology, 2025).

The structures appear in SMILES notation.

The term viability denotes a read-out of living cells in per cent, often relative to untreated cells.

The first data set in a line: in vitro. Conditions: human, hela cells, % viability.
With `O=C1N(c2ccc(Cl)cc2)Cc2nc(=O)[nH]n21` [CBK287899], the viability at 28.5 h, 10 µM came out at 91.6%.
As for `CC(C)(C)OC(=O)NCC1CCC(C(=O)O)CC1` (centres unmarked) [CBK278598], the viability at 28.5 h, 10 µM was found to be 94.5%.
On to `CN(CC(=O)OCC(=O)c1ccccc1)S(=O)(=O)c1ccc(Cl)cc1` [CBK264363], for which the viability at 28.5 h, 10 µM was determined as 105%.
For the molecule `Cc1ccc(NC(=O)CN2C(=O)N/C(=C\c3cc(Br)cc(Cl)c3O)C2=O)cc1` [CBK265018], the viability at 28.5 h, 10 µM turned out to be 98.7%.
As to `O=C(/C=C/c1ccc([N+](=O)[O-])cc1)c1ccc(O)c(O)c1` [CBK265028], the viability at 28.5 h, 10 µM stood at 105%.
Regarding `C[C@@H]1CN(C(=O)c2cn(C)c3ccccc23)C[C@H](C)O1` [CBK200235], the viability at 28.5 h, 10 µM worked out at 88.9%.
Regarding `COc1ccc(C(=O)Nc2nc3c(C)cccc3s2)c(OC)c1` [CBK287301], the viability at 28.5 h, 10 µM stood at 82.6%.
With `CC1(C)CC(NCC(O)COc2cc(C(C)(C)C)c(O)c(C(C)(C)C)c2)CC(C)(C)N1` (centres unmarked) [CBK264564], the viability at 28.5 h, 10 µM turned out to be 124%.
The same measure, in the same setting: as for `COc1ccc(-c2nc(NC(=O)c3cccc(S(C)(=O)=O)c3)cnc2-c2ccc(F)cc2)cc1` [CBK037110], the figure is 100%; as for `CCc1nc(N)nc(N2CCCC3(CN(C)C(=O)O3)C2)c1C` (centres unmarked) [CBK306914], 86.9%.
On to `O=S(=O)(c1ccccc1)n1c(CO)cc2c(C(F)(F)F)cc(CN3CCNCC3)cc21` [CBK143799], for which the viability at 28.5 h, 10 µM was found to be 97.7%.
The same measure, in the same setting: as for `CC(NC(=O)C1CCN(CCc2ccccc2)CC1)c1ccccc1` (centres unmarked) [CBK148612], the figure is 99.6%; as for `CC(C)N1CCCC[C@H]2CN(C(=O)C3OCCc4ccccc43)C[C@H]21` (some centres unmarked) [CBK285511], 104%; as for `COc1ccc([C@@]23CC[C@@H](NC(=O)Nc4cccc5nsnc45)C[C@@H]2N(C)CC3)cc1OC` [CBK038874T], 86.8%.
With `COC(=O)C1C(=O)NC(SCC(=O)Nc2cccc(Cl)c2C)=C(C#N)C1c1ccccc1F` (centres unmarked) [CBK265830], the viability at 28.5 h, 10 µM is 94.9%.
On to `COC(=O)N1CC2(CCCCC2NCC2CCCO2)c2ccccc21` (centres unmarked) [CBK083541T], for which the viability at 28.5 h, 10 µM was found to be 95.2%.
On to `COCCn1c(SCc2ccc([N+](=O)[O-])cc2)nc2c([nH]c3ccccc32)c1=O` [CBK294415], for which the viability at 28.5 h, 10 µM was 90%.
With `CC(=O)N1C[C@@H]2C[C@H](C1)c1ccc(NS(=O)(=O)c3cccc(F)c3)c(=O)n1C2` [CBK288710], the viability at 28.5 h, 10 µM worked out at 105%.
Same read-out and setting: next, `COc1cc(C2C(C(=O)c3cccs3)=C(O)C(=O)N2Cc2cccnc2)cc(OC)c1OC` (centres unmarked) [CBK264874]: 92.8%.
The same measure, in the same setting: next, `Cc1ccc(S(=O)(=O)OC[C@H]2O[C@@H](n3ccc(=O)[nH]c3=O)C[C@H]2O)cc1` [CBK201283]: 95.7%.
As to `O=C(CSCc1ccc(Br)cc1)NCc1ccccn1` [CBK268435], the viability at 28.5 h, 10 µM turned out to be 102%.
The same measure, in the same setting: next, `Cc1cccn2cc(-c3ccc4c(c3)CCN4S(C)(=O)=O)cc12` [CBK285226]: 95.5%; `Cc1c(C)n(Cc2ccco2)c2ncnc(NCCCC(=O)O)c12` [CBK307562]: 90.7%; `O=C(Nc1ccc(OC(F)(F)F)cc1)c1nn(-c2ncccn2)c2ccccc12` [CBK048510]: 98.9%.
Still for that read-out and setting: next, `Cc1cc(-c2cnc(N)nc2)cc(C2CCCN(C(=O)COc3c(C)cccc3C)C2)n1` (centres unmarked) [CBK285933]: 103%; `CC(C)n1c(=O)n(CC(=O)NCCc2ccccc2)c2cccnc21` [CBK283701]: 94.8%.
Regarding `Cn1nc(-c2ccc(S(=O)(=O)Nc3cccc(Cl)c3Cl)s2)cc1C(F)(F)F` [CBK067548], the viability at 28.5 h, 10 µM is 92.2%.
The same measure, in the same setting: next, `CC1(C)[C@H](Cc2cc(COc3ccccc3)on2)C[C@@H]1NC1CCOCC1` [CBK289694]: 96.5%; `CC(=O)Nc1cccc(/C(C)=N/NC(=O)c2ccc(CN3CCOCC3)cc2)c1` [CBK262746]: 95.4%.
Consider `O=C(CN1CCC(c2ccc(F)cc2)CC1)N1CCCCC1` [CBK283640], for which the viability at 28.5 h, 10 µM stood at 101%.
Turning to `Cc1c2cn[nH]c(=O)c2c(C)n1-c1ccccc1` [CBK018349], the viability at 28.5 h, 10 µM came to 98.3%.
As for `O[C@@]1(c2ccccn2)CC[C@H]2CN(Cc3ccc(F)c(F)c3)C[C@H]21` [CBK285456], the viability at 28.5 h, 10 µM is 107%.
Consider `CC(=O)Nc1ccc(CNC(=O)CN(C)Cc2cccc(O)c2)cc1` [CBK307660], for which the viability at 28.5 h, 10 µM turned out to be 84.8%.
With `CSCCC(Nc1ncnc2c1c(C)c(C)n2Cc1ccco1)C(=O)O` (centres unmarked) [CBK307568], the viability at 28.5 h, 10 µM was determined as 92.3%.
Consider `O=C(Nc1cccc(N2CCNCC2)c1)c1coc2c1C(=O)CCC2` [CBK034113T], for which the viability at 28.5 h, 10 µM turned out to be 87.2%.
Consider `COCCN1C(=O)C2(CC(=O)N(CC(=O)N(C)C)C2=O)c2cc(F)ccc21` (centres unmarked) [CBK075428], for which the viability at 28.5 h, 10 µM is 104%.
Regarding `Cc1ccnc(NS(=O)(=O)c2ccc(NS(=O)(=O)c3ccc(F)cc3)cc2)n1` [CBK051024], the viability at 28.5 h, 10 µM is 102%.
`OC(CN1CCN(c2ccc(C(F)(F)F)cn2)CC1)c1ccc2c(c1)OCCO2` (centres unmarked) [CBK074707]: the viability at 28.5 h, 10 µM was 104%.
With `N=c1n(CC(=O)O)c2ccccc2n1Cc1ccccc1` [CBK286531], the viability at 28.5 h, 10 µM was 108%.
For the molecule `Oc1cccc(/C=N/c2nnn[nH]2)c1` [CBK260977], the viability at 28.5 h, 10 µM came out at 91.7%.
Turning to `c1ccc(Oc2cccc(OCCCN3CCCCC3)c2)cc1` [CBK261781], the viability at 28.5 h, 10 µM was 95.2%.
Still for that read-out and setting: next, `COCC(=O)N(C)C(CO)c1cc(OC)ccc1Br` (centres unmarked) [CBK304780]: 88.7%; `Cc1nn(C)c(C)c1C(C)NC(=O)C1CC2C=CC1C21CC1` (centres unmarked) [CBK283076]: 81.5%.
Take `O=C1NCCN1CCOc1nccnc1-c1ccsc1` [CBK106766]: the viability at 28.5 h, 10 µM stood at 93.4%.
Still for that read-out and setting: next, `O=C(NC(c1ccc(Cl)cc1)c1ccsc1)C1CCN(CCOc2ccccc2)CC1` (centres unmarked) [CBK147951]: 101%.
The same measure, in the same setting: next, `CC(=O)Nc1ccc2c(c1)CCC(C)C2=O` (centres unmarked) [CBK003474]: 78.4%; `O=C(NC(=O)C1CCN(CC2COc3ccccc3O2)CC1)Nc1ccccc1` (centres unmarked) [CBK035267]: 92.4%.
With `O=C(OCCC1SC(NC2CC3C=CC2C3)=NC1=O)c1c(F)cccc1F` (centres unmarked) [CBK200057T], the viability at 28.5 h, 10 µM amounted to 89.7%.
On to `Cc1cc(C(=O)Nc2cccc(-c3nc4cc(Cl)ccc4o3)c2C)ccc1[N+](=O)[O-]` [CBK262949], for which the viability at 28.5 h, 10 µM amounted to 91.8%.
On to `CC1(C)CC(=O)C=C(C(=O)Nc2ccccc2N2CCCNCC2)O1` [CBK038935T], for which the viability at 28.5 h, 10 µM stood at 112%.
Turning to `O=C(CCN1CCN(Cc2ccccc2)CC1)Nc1ccc(F)cc1` [CBK264261], the viability at 28.5 h, 10 µM came to 77%.
`CN(C)CCN1CCN(c2cccc(-c3ccncc3)n2)CC1` [CBK037029]: the viability at 28.5 h, 10 µM came to 95.9%.
Consider `Clc1ccc(-c2cc(CN3CCCCC3)no2)cc1Cl` [CBK018435], for which the viability at 28.5 h, 10 µM was 102%.
Consider `Cc1nnc(CNC(=O)c2cc(-c3ccc(Cl)cc3)nc3ccccc23)o1` [CBK297717], for which the viability at 28.5 h, 10 µM was 109%.
With `Cn1c(=O)[nH]c(=O)c2c1nc(NC1CCCCC1)n2CCCc1ccccc1` [CBK269500], the viability at 28.5 h, 10 µM came to 92.7%.
Take `COc1cc(OC)cc(C(=O)N2CCC3(CC2)CC(=O)c2ccc(OCCN(C)C)cc2O3)c1` [CBK169008T]: the viability at 28.5 h, 10 µM came to 92.8%.
Still for that read-out and setting: as for `C=CCOc1ccc(CN(C)Cc2nc3cc(C(=O)O)ccc3c(=O)[nH]2)cc1` [CBK295156], the figure is 101%; as for `CCOc1ccsc1C(=O)Nc1cc(C)ccn1` [CBK004029], 88.3%; as for `COc1cccc(CNn2cnnc2S)c1OCc1ccccc1` [CBK265781], 96.3%.
As for `O=C(O)c1cc(-c2cccnc2)nc2ccccc12` [CBK262141K], the viability at 28.5 h, 10 µM amounted to 103%.
Consider `Cc1ccc(OCC(O)CN2CCN(c3nc(-c4ccccc4)ns3)CC2)c([N+](=O)[O-])c1` (centres unmarked) [CBK074696], for which the viability at 28.5 h, 10 µM is 95.3%.
On the same count and under the same terms, next, `O=C(c1ccccc1)c1cccc(OCCOc2nccnc2N2CCNCC2)c1` [CBK014250G]: 96.1%; `CCCn1c(SCC(=O)c2ccc(CCNC(C)=O)cc2)n[nH]c1=O` [CBK296965]: 92.1%.
In the case of `O=C(NCc1ccccn1)c1cc(-c2ccc(Cl)cc2)on1` [CBK116558], the viability at 28.5 h, 10 µM is 83.8%.
As for `Cn1c(C(C)(C)C)cs/c1=N\NS(=O)(=O)c1ccccc1` [CBK006830B], the viability at 28.5 h, 10 µM was determined as 110%.
Same read-out and setting: next, `O=C(NCCc1ccccn1)c1ccc(Cl)cc1Cl` [CBK015946]: 81.4%; `O=C(N[C@H]1CO[C@H]2[C@@H]1OC[C@@H]2Nc1nccc(-c2cccs2)n1)c1cccs1` [CBK289518]: 106%; `CCOC(=O)c1nc2c(n1C)[C@H]1[C@H](O)[C@H](O)C[C@H]1C1(CCC1)N2` [CBK303241]: 107%.
Same read-out and setting: as for `CSc1ncc(Cl)c(C(=O)Nc2ccc(S(=O)(=O)N3CCC(Cc4ccccc4)CC3)cc2)n1` [CBK268870], the figure is 96.3%; as for `O=C(NC1CCS(=O)(=O)C1)c1cnc2c(OC(F)(F)F)cccc2c1O` (centres unmarked) [CBK304323], 99.7%.
On to `CN1[C@@H](CCC(=O)N2CCOCC2)CNC(=O)[C@@H]2[C@H]1CCN2C1CCCCC1` [CBK289032], for which the viability at 28.5 h, 10 µM is 88.9%.
In the case of `CC1OCCC12CN(c1cc(CO)c(F)cn1)CCO2` (centres unmarked) [CBK304775], the viability at 28.5 h, 10 µM stood at 102%.
As to `O=C(O)C1CCCN(C(=O)Cn2ccc3ccc(OCc4ccccc4)cc32)C1` (centres unmarked) [CBK286814], the viability at 28.5 h, 10 µM was determined as 89.6%.
As to `CNC(=S)NNC(=O)CN1CCSCC1` [CBK262444], the viability at 28.5 h, 10 µM came to 88.3%.
For the molecule `Cn1cc(CCNC(=O)Nc2ccc(N3CCCCC3)nc2)cn1` [CBK305656], the viability at 28.5 h, 10 µM was 95.2%.

The data set is the same for the next values; noted with them: human, hela cells, % viability, bulk resorufin, single well.
For `CC(=O)N1CCC2(CC1)OCc1cc(-c3ccc(C)o3)ccc1O2` [CBK060889], the viability at 28.5 h, 10 µM came out at 87.1%.
In the case of `O=P(Nc1ccc(Cl)c(Cl)c1)(Nc1ccc(Cl)c(Cl)c1)Oc1ccc(Cl)cc1` [CBK263487], the viability at 28.5 h, 10 µM came to 93.2%.
